Results on 13 molecules are retold here after patent US12410208B2, “(2-acetamidyl)thio-beta-D-galactopyranoside derivatives” (Idorsia Pharmaceuticals Ltd, priority 2020, dated 2025).

Assay [1] addresses biotinylated human Gal-3 (hGal-3) (Homo sapiens, UniProt P17931). The assay can be described thus: Competitive binding assay: biotinylated hGal-3 binding to microplate-adsorbed asialofetuin (ASF), spectrophotometric. In a few lines: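 Competitive binding of biotinylated hGal-3 to plate-adsorbed asialofetuin was measured with serially diluted compounds over 3 h at 4° C. Bound protein was detected with streptavidin-peroxidase and ABTS substrate by absorbance. IC50 values are means of several measurements.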

The target in another assay is human Gal-1 (hGal-1) (Homo sapiens, UniProt P09382). Briefly: Competitive binding assay: biotinylated hGal-1 binding to microplate-adsorbed asialofetuin (ASF), spectrophotometric. Particulars: hGal-1 binding to asialofetuin; Table 15; R and S epimers of selected Examples also listed; read-out: IC50 (Galectin-1 inhibition). In a few lines:
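Biotinylated hGal-1 (300-1000 ng/mL) incubated with compound on asialofetuin-coated plates 3 hours at 4 °C, washed, then streptavidin-peroxidase (80 ng/mL) 1 hour at 4 °C. ABTS substrate read spectrophotometrically; IC50 reported as mean of several measurements.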

The mark [2] stands for this setting: Gal-3 inhibition, Table 5, read-out: IC50.
Where [3] appears, read: Table 13, hGal-3, read-out: IC50 (Gal-3 inhibition).

pIC50: −log10 of the molar value. Read-outs that look alike come from different tables or passages of the source.

Sequence of biotinylated human Gal-3 (hGal-3) (P17931 whole entry): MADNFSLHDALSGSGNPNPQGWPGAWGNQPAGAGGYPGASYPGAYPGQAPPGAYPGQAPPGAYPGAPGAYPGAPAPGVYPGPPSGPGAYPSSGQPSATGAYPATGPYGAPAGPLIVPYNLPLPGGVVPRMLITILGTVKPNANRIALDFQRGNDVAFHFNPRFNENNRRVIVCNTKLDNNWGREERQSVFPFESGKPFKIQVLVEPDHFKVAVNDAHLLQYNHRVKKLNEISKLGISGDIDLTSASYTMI
Sequence of human Gal-1 (hGal-1) (P09382 whole entry): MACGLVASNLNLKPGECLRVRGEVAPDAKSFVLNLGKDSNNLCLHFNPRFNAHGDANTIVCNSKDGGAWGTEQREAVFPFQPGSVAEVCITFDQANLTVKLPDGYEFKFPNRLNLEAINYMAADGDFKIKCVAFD

Usually pIC50 stands for −log10 of the IC50, conventionally taken in molar units. As to “2-(((2S,3R,4S,5R,6R)-3,5-Dihydroxy-6-(hydroxymethyl)-4-(4-(3,4,5-trifluorophenyl)-1H-1,2,3-triazol-1-yl)tetrahydro-2H-pyran-2-yl)thio)-N-ethyl-2-(4-hydroxy-1-methylpiperidin-4-yl)-N-methylacetamide [Example 2.40.203.]”, the pIC50 is 7.10 in assay [1] (Gal-3 inhibition, Table 4, read-out: IC50) and 6.80 on human Gal-1 (hGal-1).
Take `CN(C(=O)[C@H](S[C@@H]1O[C@H](CO)[C@H](O)[C@H](n2cc(-c3cc(F)c(F)c(F)c3)nn2)[C@H]1O)C1(O)CCOCC1)C1COC1` [Example 2.41.235R., (R)-2-(((2S,3R,4S,5R,6R)-3,5-Dihydroxy-6-(hydroxymethyl)-4-(4-(3,4,5-trifluorophenyl)-1H-1,2,3-triazol-1-yl)tetrahydro-2H-pyran-2-yl)thio)-2-(4-hydroxytetrahydro-2H-pyran-4-yl)-N-methyl-N-(oxetan-3-yl)acetamide]: the pIC50 was 5.62 in assay [1] (setting [2]) and 5.18 on human Gal-1 (hGal-1).
`CC(C)CN(C)C(=O)C(S[C@@H]1O[C@H](CO)[C@H](O)[C@H](n2cc(-c3cc(F)c(F)c(F)c3)nn2)[C@H]1O)C1(O)CCOCC1` (stereo partly drawn) [Example 2.41.200., 2-(((2S,3R,4S,5R,6R)-3,5-Dihydroxy-6-(hydroxymethyl)-4-(4-(3,4,5-trifluorophenyl)-1H-1,2,3-triazol-1-yl)tetrahydro-2H-pyran-2-yl)thio)-2-(4-hydroxytetrahydro-2H-pyran-4-yl)-N-isobutyl-N-methylacetamide]: the negative-log IC50 (pIC50) in assay [1] (Gal-3 inhibition, Table 2, read-out: IC50) is 7.22; at human Gal-1 (hGal-1), 6.59.
As for `O=C(C(S[C@@H]1O[C@H](CO)[C@H](O)[C@H](n2cc(-c3cc(F)c(F)c(F)c3)nn2)[C@H]1O)C(O)Cc1ccccc1)N1CCC1` (stereo partly drawn) [Example 2.64.206., 1-(Azetidin-1-yl)-2-(((2S,3R,4S,5R,6R)-3,5-dihydroxy-6-(hydroxymethyl)-4-(4-(3,4,5-trifluorophenyl)-1H-1,2,3-triazol-1-yl)tetrahydro-2H-pyran-2-yl)thio)-3-hydroxy-4-phenylbutan-1-one], the pIC50 is 6.15 in assay [1] (Gal-3 inhibition, Table 7, read-out: IC50) and 5.23 at human Gal-1 (hGal-1).
Consider `CO[C@@H]1[C@@H](n2cc(-c3cc(F)c(F)c(F)c3)nn2)[C@@H](O)[C@@H](CO)O[C@H]1S[C@@H](C(=O)N1CCC(F)(F)CC1)C1(O)CCC2(CCC2)CC1` [Example 2.69.226R.I., (R)-1-(4,4-Difluoropiperidin-1-yl)-2-(((2S,3R,4S,5R,6R)-5-hydroxy-6-(hydroxymethyl)-3-methoxy-4-(4-(3,4,5-trifluorophenyl)-1H-1,2,3-triazol-1-yl)tetrahydro-2H-pyran-2-yl)thio)-2-(7-hydroxyspiro[3.5]nonan-7-yl)ethan-1-one], for which the pIC50 in assay [1] (setting [3]) was 6.24; on human Gal-1 (hGal-1), 5.79.
For the molecule `CCN(C)C(=O)[C@@H](S[C@@H]1O[C@H](CO)[C@H](O)[C@H](n2cc(-c3cc(F)c(F)c(F)c3)nn2)[C@H]1O)C1(O)CCN(C(=O)OC)CC1` [Example 2.50.203S., (S)-Methyl 4-(1-(((2S,3R,4S,5R,6R)-3,5-dihydroxy-6-(hydroxymethyl)-4-(4-(3,4,5-trifluorophenyl)-1H-1,2,3-triazol-1-yl)tetrahydro-2H-pyran-2-yl)thio)-2-(ethyl(methyl)amino)-2-oxoethyl)-4-hydroxypiperidine-1-carboxylate], the negative-log IC50 (pIC50) in assay [1] (Table 8, hGal-3, read-out: IC50 (Gal-3 inhibition)) is 7.40; on human Gal-1 (hGal-1), 7.22.
Consider `O=C(C(S[C@@H]1O[C@H](CO)[C@H](O)[C@H](n2cc(-c3cc(F)c(F)c(F)c3)nn2)[C@H]1O)C1(O)CCC(F)(F)CC1)N1CCC(F)(F)CC1` (stereo partly drawn) [Example 2.44.226., 2-(4,4-Difluoro-1-hydroxycyclohexyl)-1-(4,4-difluoropiperidin-1-yl)-2-(((2S,3R,4S,5R,6R)-3,5-dihydroxy-6-(hydroxymethyl)-4-(4-(3,4,5-trifluorophenyl)-1H-1,2,3-triazol-1-yl)tetrahydro-2H-pyran-2-yl)thio)ethan-1-one], for which the figures for the pIC50 (in assay [1] (setting [2]); at human Gal-1 (hGal-1)) were 7.05 and 6.96, respectively.
For `CN(CC1CC1)C(=O)[C@H](S[C@@H]1O[C@H](CO)[C@H](O)[C@H](n2cc(-c3cc(F)c(F)c(F)c3)nn2)[C@H]1O)C1(O)CCC1` [Example 2.34.218R., (R)-N-(Cyclopropylmethyl)-2-(((2S,3R,4S,5R,6R)-3,5-dihydroxy-6-(hydroxymethyl)-4-(4-(3,4,5-trifluorophenyl)-1H-1,2,3-triazol-1-yl)tetrahydro-2H-pyran-2-yl)thio)-2-(1-hydroxycyclobutyl)-N-methylacetamide] the same measures were 5.22 and 4.68.
As for `CN(CC(C)(C)F)C(=O)[C@H](S[C@@H]1O[C@H](CO)[C@H](O)[C@H](n2cc(-c3cc(F)c(F)c(F)c3)nn2)[C@H]1O)C1(O)CCC1` [Example 2.34.222R., (R)-2-(((2S,3R,4S,5R,6R)-3,5-Dihydroxy-6-(hydroxymethyl)-4-(4-(3,4,5-trifluorophenyl)-1H-1,2,3-triazol-1-yl)tetrahydro-2H-pyran-2-yl)thio)-N-(2-fluoro-2-methylpropyl)-2-(1-hydroxycyclobutyl)-N-methylacetamide], the values for the pIC50 (in assay [1] (setting [2]); on human Gal-1 (hGal-1)) were 5.06 and 4.34, respectively.
On to `CO[C@@H]1[C@@H](n2cc(-c3cc(F)c(F)c(F)c3)nn2)[C@@H](O)[C@@H](CO)O[C@H]1S[C@H](C(=O)N1CCC(F)(F)CC1)C1(O)CCC2(CCC2)CC1` [Example 2.69.226S.I., (S)-1-(4,4-Difluoropiperidin-1-yl)-2-(((2S,3R,4S,5R,6R)-5-hydroxy-6-(hydroxymethyl)-3-methoxy-4-(4-(3,4,5-trifluorophenyl)-1H-1,2,3-triazol-1-yl)tetrahydro-2H-pyran-2-yl)thio)-2-(7-hydroxyspiro[3.5]nonan-7-yl)ethan-1-one], for which the negative logarithm of the IC50 (pIC50) in assay [1] (setting [3]) was 6.92; at human Gal-1 (hGal-1), 6.57.
With `CN(Cc1cn(C)cn1)C(=O)C(S[C@@H]1O[C@H](CO)[C@H](O)[C@H](n2cc(-c3cc(F)c(F)c(F)c3)nn2)[C@H]1O)C(C)(C)O` (stereo partly drawn) [Example 2.31.215., 2-(((2S,3R,4S,5R,6R)-3,5-Dihydroxy-6-(hydroxymethyl)-4-(4-(3,4,5-trifluorophenyl)-1H-1,2,3-triazol-1-yl)tetrahydro-2H-pyran-2-yl)thio)-3-hydroxy-N,3-dimethyl-N-((1-methyl-1H-imidazol-4-yl)methyl)butanamide], the pIC50 is 6.72 in assay [1] (Table 6, hGal-3, read-out: IC50 (Gal-3 inhibition)) and 5.77 on human Gal-1 (hGal-1).
As to `CCN(C)C(=O)[C@@H](S[C@@H]1O[C@H](CO)[C@H](O)[C@H](n2cc(-c3cc(F)c(F)c(F)c3)nn2)[C@H]1O)C1(O)CCC1` [Example 2.34.203S., (S)-2-(((2S,3R,4S,5R,6R)-3,5-Dihydroxy-6-(hydroxymethyl)-4-(4-(3,4,5-trifluorophenyl)-1H-1,2,3-triazol-1-yl)tetrahydro-2H-pyran-2-yl)thio)-N-ethyl-2-(1-hydroxycyclobutyl)-N-methylacetamide], the negative-log IC50 (pIC50) is 6.92 in assay [1] (setting [2]) and 6.77 on human Gal-1 (hGal-1).
`CCN(C)C(=O)C(S[C@@H]1O[C@H](CO)[C@H](O)[C@H](n2cc(-c3cc(F)c(F)c(F)c3)nn2)[C@H]1O)C(C)(C)O` (stereo partly drawn) [Example 2.31.203., 2-(((2S,3R,4S,5R,6R)-3,5-Dihydroxy-6-(hydroxymethyl)-4-(4-(3,4,5-trifluorophenyl)-1H-1,2,3-triazol-1-yl)tetrahydro-2H-pyran-2-yl)thio)-N-ethyl-3-hydroxy-N,3-dimethylbutanamide]: the negative-log IC50 (pIC50) was 6.68 in assay [1] (Gal-3 inhibition, Table 3, read-out: IC50) and 6.06 at human Gal-1 (hGal-1).
